The subject of test [1] is Staphylococcus aureus (S. aureus) 11540 strain. As to the kind of experiment: Standard microdilution MIC assay, S. aureus. Format: cell-based. The procedure:
(§1) The in vitro activity of the compounds of the present disclosure can be determined. Antimicrobial testing is typically performed to determine the minimum inhibitory concentration (MIC). Minimum inhibitory concentrations (MICs) are determined by the microdilution method in a final volume of 100 μl according to protocols outlined by The Clinical and Laboratory Standards Institute (CLSI). Performance standards for reference strains are assessed within the same experimental design to maintain quality control. See, for example, Clinical Laboratory Standards Institute: Methods for dilution antimicrobial susceptibility tests for bacteria that grow aerobically M7-A8. Approved Standard-Eighth Edition. Wayne, PA: CLSI; December 2008; and Clinical Laboratory Standards Institute: Performance Standards for Antimicrobial Susceptibility Testing M100-S20; Approved Standard-Twentieth Edition. Wayne, PA: CLSI; June 2010.
(§2) The compounds of the present disclosure were tested for antimicrobial activity. The Compounds 1-293 were run against Escherichia coli (E co/i) strain ATCC25922 and against Staphylococcus aureus (S. aureus) 11540 strain using a standard microdilution assay to determine minimum inhibitory concentrations (MICs). […] It will be recognized by one skilled in the art that the compounds can be assessed against other bacterial organisms and that the presentation of data for activity against Escherichia coli and Staphylococcus aureus are illustrative and in no way is intended to limit the scope of the present disclosure. The compounds of the present disclosure can be assayed against a range of other microorganisms depending upon the performance activity desired to be gathered. Furthermore, the “+” and “−” representation and the selection of a cutoff value of 16 micrograms/mL is also illustrative and in no way is intended to limit the scope of the present disclosure.
(In general: Dilution methods test growth across graded concentrations, often in twofold steps.)

Test [2] relates to Escherichia coli strain ATCC25922. In words: Standard microdilution MIC assay, E. coli. Format: cell-based. The method, then:
as §1, §2

Structures are written as SMILES.

For the molecule `C=C[C@@H](N)CCCc1cc(Cl)c(F)c(-c2cc3cn(-c4ccc(CN[C@@H](CO)CCNC(C)=N)cc4)c(=O)nc3[nH]2)c1` [Compound 39], the minimum inhibitory concentration (MIC) in test [1] and in test [2] was not above 16 µg/mL throughout.
In the case of `CC(=N)NCC[C@@H]1CCC[C@@H](c2ccc(-n3cc4cc(-c5cc(CCC[C@@H](N)C6CC6)cc(Cl)c5F)[nH]c4nc3=O)cc2)N1` [Compound 78], the MIC in test [1] and in test [2] was not above 16 µg/mL each time.
Turning to `C=C[C@@H](CCNC(C)=N)N[C@@H](C)c1ccc(-n2cc3cc(-c4cc(CCC[C@@H](N)CO)cc(Cl)c4F)[nH]c3nc2=O)cc1` [Compound 151], the MIC in test [1] and in test [2] was not above 16 µg/mL in each case.
For `C=C[C@@H](N)CCCc1cc(Cl)c(F)c(-c2cc3cn(-c4ccc([C@@H]5CCC[C@@H](C[C@@H](C)NC(C)=N)N5)cc4)c(=O)nc3[nH]2)c1` [Compound 340], the minimum inhibitory concentration (MIC) in test [1] and in test [2] was not above 16 µg/mL in each case.
Regarding `C=CC(CCNC(=N)CC(F)(F)F)NCc1ccc(-n2cc3cc(-c4cc(CCC[C@H](C)N)cc(Cl)c4F)[nH]c3nc2=O)cc1` (stereo partly shown) [Compound 16], the MIC in test [1] and in test [2] was not above 16 µg/mL in each case.
`C=C[C@H](N)CCCc1cc(Cl)c(F)c(-c2cc3cn(-c4ccc([C@@H]5CCC[C@@H](CCNC(C)=N)N5)c(OC)c4)c(=O)nc3[nH]2)c1` [Compound 244]: the MIC in test [1] and in test [2] was not above 16 µg/mL each time.
As for `C=C[C@@H](CCNC(C)=N)N[C@@H](C)c1ccc(-n2cc3cc(-c4cc(CCC[C@@H](N)CO)cc(Cl)c4F)[nH]c3nc2=O)cc1F` [Compound 168], the MIC in test [1] and in test [2] was not above 16 µg/mL each time.
Regarding `CC(=N)NCCCN[C@@H](CO)c1ccc(-n2cc3cc(-c4cc(CCC[C@@H](N)CO)cc(Cl)c4F)[nH]c3nc2=O)cc1` [Compound 133], the MIC in test [1] and in test [2] was not above 16 µg/mL each time.
As for `CC(=N)NCC[C@@H]1CCC[C@@H](c2ccc(-n3cc4cc(-c5cc(CCC[C@@H](N)C6CC6)cc(OC(F)(F)F)c5F)[nH]c4nc3=O)cc2)N1` [Compound 207], the MIC in test [1] and in test [2] was not above 16 µg/mL each time.
Consider `C=CC(CCNC(C)=N)NCc1ccc(-n2cc3cc(-c4cc(CCC[C@@H](N)C(F)(F)F)cc(Cl)c4F)[nH]c3nc2=O)cc1` (stereo partly shown) [Compound 11], for which the MIC – broadly, the lowest concentration that inhibits growth of the organism – is not above 16 µg/mL in test [1] and more than 16 µg/mL in test [2].
On to `CC(=N)NCCCN[C@@H](C)c1ccc(-n2cc3cc(-c4cc(CCC[C@@H](N)CF)cc(Cl)c4F)[nH]c3nc2=O)cc1F` [Compound 107], for which the MIC in test [1] and in test [2] was not above 16 µg/mL each time.
Regarding `CC(=N)NCC[C@@H]1CCC[C@@H](c2ccc(-n3cc4cc(-c5cc(CCC[C@@H](N)CC#N)cc(Cl)c5F)[nH]c4nc3=O)cc2)N1` [Compound 154], the MIC in test [1] and in test [2] was not above 16 µg/mL in each case.
For the molecule `CSc1cc(-n2cc3cc(-c4cc(CCC[C@@H](N)C5CC5)cc(Cl)c4F)[nH]c3nc2=O)ccc1[C@@H]1CCC[C@@H](CCNC(C)=N)N1CCCF` [Compound 333], the MIC in test [1] and in test [2] was not above 16 µg/mL in each case.
In the case of `CC(=N)NCC[C@@H]1CCC[C@@H](c2ccc(-n3cc4cc(-c5cc(CCC[C@H](C)N)cc(Cl)c5F)[nH]c4nc3=O)cc2)N1C` [Compound 109], the MIC in test [1] and in test [2] was not above 16 µg/mL throughout.
Regarding `C[C@H](N)CCCc1cc(Cl)c(F)c(-c2cc3cn(-c4ccc(CN[C@@H](CO)CCNC(=N)CF)cc4)c(=O)nc3[nH]2)c1` [Compound 61], the MIC in test [1] and in test [2] was not above 16 µg/mL throughout.
Take `C=C[C@@H](CCNC(=N)CCOCC)NCc1ccc(-n2cc3cc(-c4cc(CCC[C@H](C)N)cc(Cl)c4F)[nH]c3nc2=O)cc1` [Compound 52]: the MIC in test [1] and in test [2] was not above 16 µg/mL each time.
On to `CC(=N)NCC[C@@H]1CSC[C@@H](c2ccc(-n3cc4cc(-c5cc(CCC[C@H](C)N)cc(Cl)c5F)[nH]c4nc3=O)cc2)N1` [Compound 271], for which the MIC in test [1] and in test [2] was not above 16 µg/mL in each case.
Take `CC(=N)NCC[C@@H]1CCC[C@@H](c2ccc(-n3cc4cc(-c5cc(CCC[C@@H](N)C6CC6)cc(Cl)c5F)[nH]c4nc3=O)cc2F)N1CCCF` [Compound 332]: the minimum inhibitory concentration (MIC) in test [1] and in test [2] was not above 16 µg/mL throughout.
Consider `CC(=N)NCC[C@@H]1CCC[C@@H](c2ccc(-n3cc4cc(-c5cc(CCC[C@H](C)N)cc(Cl)c5F)[nH]c4nc3=O)cc2C)N1` [Compound 232], for which the MIC in test [1] and in test [2] was not above 16 µg/mL throughout.
Turning to `CC(=N)NCC[C@@H]1CCC[C@@H](c2ccc(-n3cc4cc(-c5cc(CCC[C@H](C)N)cc(C(F)(F)F)c5)[nH]c4nc3=O)cc2)N1CCCF` [Compound 293], the MIC in test [1] and in test [2] was not above 16 µg/mL in each case.
As to `CC(=N)NCC[C@@H]1CCC[C@@H](c2ccc(-n3cc4cc(-c5cc(CCC[C@H](C)N)cc(Cl)c5F)[nH]c4nc3=O)cc2)N1CCF` [Compound 364], the MIC in test [1] and in test [2] was not above 16 µg/mL each time.
Turning to `CC(=N)NCC[C@@H]1CCC[C@@H](c2ccc(-n3cc4cc(-c5cc(CCC[C@@H](N)C6CC6)cc(C(F)(F)F)c5)[nH]c4nc3=O)cc2)N1` [Compound 206], the MIC in test [1] and in test [2] was not above 16 µg/mL throughout.
As for `CSc1cc(-n2cc3cc(-c4cc(CCC[C@@H](N)C5CC5)cc(Cl)c4F)[nH]c3nc2=O)cc(F)c1[C@@H]1CCC[C@@H](CCNC(C)=N)N1` [Compound 275], the MIC in test [1] and in test [2] was not above 16 µg/mL each time.
Take `C[C@H](NCCCNC(=N)CF)c1ccc(-n2cc3cc(-c4cc(CCC[C@@H](N)CO)cc(Cl)c4F)[nH]c3nc2=O)cc1F` [Compound 125]: the minimal inhibitory concentration (MIC) in test [1] and in test [2] was not above 16 µg/mL each time.
With `C=C[C@@H](CCNC(=N)CC(F)(F)F)NCc1ccc(-n2cc3cc(-c4cc(CCC[C@H](C)N)cc(Cl)c4F)[nH]c3nc2=O)cc1` [Compound 58], the MIC in test [1] and in test [2] was not above 16 µg/mL in each case.
As for `CC(=N)NCC[C@@H]1CCC[C@@H](c2ccc(-n3cc4cc(-c5cc(CCC[C@H](C)NC(C)=N)cc(Cl)c5F)[nH]c4nc3=O)cc2)N1` [Compound 29], the MIC in test [1] and in test [2] was not above 16 µg/mL in each case.
For the molecule `C=CC(CCNC(C)=N)NCc1ccc(-n2cc3cc(-c4cc(CCC(C)(C)CN)cc(Cl)c4F)[nH]c3nc2=O)cc1` (stereo not shown) [Compound 26], the MIC in test [1] and in test [2] was not above 16 µg/mL throughout.
Regarding `C=C[C@H](N)CCCc1cc(Cl)c(F)c(-c2cc3cn(-c4ccc([C@@H]5CCC[C@@H](CCNC(=N)C(Cl)(Cl)Cl)N5)c(F)c4)c(=O)nc3[nH]2)c1` [Compound 185], the MIC in test [1] and in test [2] was not above 16 µg/mL in each case.
Consider `C=CCN(CC[C@@H]1CCC[C@@H](c2ccc(-n3cc4cc(-c5cc(CCC[C@@H](N)CF)cc(Cl)c5F)[nH]c4nc3=O)cc2)N1C)C(C)=N` [Compound 181], for which the MIC in test [1] and in test [2] was not above 16 µg/mL each time.
As for `CC(=N)NCC[C@@H]1CCC[C@@H](c2ccc(-n3cc4cc(-c5cc(CCC[C@@H](N)CF)cc(C(F)(F)F)c5)[nH]c4nc3=O)cc2)N1` [Compound 204], the MIC in test [1] and in test [2] was not above 16 µg/mL each time.
On to `CC(=N)NCC[C@@H]1CCC[C@@H](c2ccc(-n3cc4cc(-c5cc(CCC(F)(F)CN)cc(Cl)c5F)[nH]c4nc3=O)cc2)N1` [Compound 90], for which the MIC in test [1] and in test [2] was not above 16 µg/mL in each case.
`C=C[C@H](N)CCCc1cc(Cl)c(F)c(-c2cc3cn(-c4ccc([C@H](C)N[C@@H](CO)CCNC(C)=N)c(F)c4)c(=O)nc3[nH]2)c1` [Compound 174]: the MIC in test [1] and in test [2] was not above 16 µg/mL in each case.
On to `N=C(CF)NCC[C@@H]1CCC[C@@H](c2ccc(-n3cc4cc(-c5cc(CCC[C@@H](N)C6CC6)cc(Cl)c5F)[nH]c4nc3=O)cc2)N1` [Compound 86], for which the MIC in test [1] and in test [2] was not above 16 µg/mL in each case.
For `C=C[C@H](NCCCNC(C)=N)c1ccc(-n2cc3cc(-c4cc(CCC[C@@H](N)COC)cc(OC(F)(F)F)c4F)[nH]c3nc2=O)cc1` [Compound 268], the MIC in test [1] and in test [2] was not above 16 µg/mL throughout.
With `COC[C@H](N)CCCc1cc(-c2cc3cn(-c4ccc([C@@H]5CCC[C@@H](CCNC(C)=N)N5)c(OC(F)(F)F)c4)c(=O)nc3[nH]2)c(F)c(C(F)(F)F)c1` [Compound 216], the MIC in test [1] and in test [2] was not above 16 µg/mL each time.
On to `CC(=N)NCC[C@@H]1CCC[C@@H](c2ccc(-n3cc4cc(-c5cc(CCC[C@@H](N)C6CC6)cc(Cl)c5F)[nH]c4nc3=O)cc2F)N1` [Compound 167], for which the MIC in test [1] and in test [2] was not above 16 µg/mL throughout.
For the molecule `CC(=N)NCC[C@@H]1CCC[C@@H](c2ccc(-n3cc4cc(-c5cc(CCC[C@@H](N)CF)cc(C(F)(F)F)c5F)[nH]c4nc3=O)cc2F)N1` [Compound 221], the minimal inhibitory concentration (MIC) in test [1] and in test [2] was not above 16 µg/mL each time.
Take `CC(=N)NCCCNC1(c2ccc(-n3cc4cc(-c5cc(CCC[C@@H](N)CO)cc(Cl)c5F)[nH]c4nc3=O)cc2)CC1` [Compound 138]: the MIC in test [1] and in test [2] was not above 16 µg/mL throughout.

The values are drawn from patent US11999739B2, “Antimicrobials methods of making and using the same” (BIOVERSYS AG, priority 2016, dated 2024).
